Counter-ions that a name gives are not always drawn.
How the values were obtained:
[1] = test system: HCT-116 cell line; assay: Inhibition of cell growth, MTT tetrazolium salt assay; format: cell-based; settings: for IC50: Homo sapiens, HCT-116, 120 h, MTT, three to five days
In short: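 HCT-116 cells in McCoy's 5A were dosed 4 h after plating with compounds in 0.5% DMSO and grown 3–5 days at 37 °C. Then 0.2 mg/mL MTT was added for 4 h and formazan absorbance read at 540 nm. IC50/IC90 came from semi-log plots against DMSO-only controls.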

[2] = target: T1, CDK2/cyclin A (Homo sapiens, UniProt P24941); assay: Inhibition of CDK2/cyclin A retinoblastoma kinase activity (Ki; % inhibition); format: biochemical; settings: for Ki: apparent Ki, CDK2/cyclin A, Rb substrate
T1 construct: made in house; host or cells: CDK2: insect cells (baculovirus); cyclin A: E. coli
In short: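 Radiometric filter assay of CDK2/proteolyzed cyclin A (baculovirus-expressed human CDK2, 10 or 19 nM) phosphorylating an Rb fragment with 25 μM [³²P/³³P]ATP in pH 7.4 HEPES, 2% DMSO, at 30 °C for 60 or 75 min under initial-rate conditions. Library compounds screened at 30 nM for % inhibition; apparent Ki from concentration series fit to competitive or tight-binding inhibition equations.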

[3] = target: T2, human CDK4/cyclin D3 (Homo sapiens, UniProt P11802); assay: Inhibition of CDK4/cyclin D retinoblastoma kinase activity (Ki; % inhibition); format: biochemical; settings: for Ki: apparent Ki, CDK4/cyclin D3, Rb substrate
T2 construct: made in house; host or cells: insect cells co-infected with baculovirus vectors
T2 sequence (P11802 whole entry): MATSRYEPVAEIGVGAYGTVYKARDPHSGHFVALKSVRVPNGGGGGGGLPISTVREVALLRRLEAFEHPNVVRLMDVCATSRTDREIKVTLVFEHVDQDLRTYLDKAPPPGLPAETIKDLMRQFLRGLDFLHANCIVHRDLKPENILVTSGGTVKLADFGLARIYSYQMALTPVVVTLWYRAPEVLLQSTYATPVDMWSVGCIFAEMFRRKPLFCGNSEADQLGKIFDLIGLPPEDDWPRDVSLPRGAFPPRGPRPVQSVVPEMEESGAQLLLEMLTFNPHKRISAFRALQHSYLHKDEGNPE
T2 sequence (P30281 1-264 partner limits assumed): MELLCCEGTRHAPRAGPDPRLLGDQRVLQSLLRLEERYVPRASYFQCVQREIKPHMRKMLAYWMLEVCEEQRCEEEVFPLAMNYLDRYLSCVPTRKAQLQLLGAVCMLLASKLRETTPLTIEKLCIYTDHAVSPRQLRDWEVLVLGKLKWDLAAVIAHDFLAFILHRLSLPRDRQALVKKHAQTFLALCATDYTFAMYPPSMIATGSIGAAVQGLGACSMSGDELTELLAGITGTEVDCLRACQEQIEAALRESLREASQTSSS
In short: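 Insect-cell-expressed CDK4 with truncated cyclin D3 (1-264), 5 nM, phosphorylating His-tagged Rb fragment (386-928) with 25 μM [32/33P]ATP at pH 7.4, 30 °C, 20 min (60 min for tight binders). Filter capture, phosphorimager read; % inhibition at 30 nM compound, Ki from competitive or tight-binding fits.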

[4] = HCT-116 cells, 0.25 μM compound

SMILES | CDK2 % Inhibition at 0.03 μM ([2]; at 0.03 μM) [%] | CDK4 % Inhibition at 0.03 μM ([3]; at 0.03 μM) [%] | HCT-116 % Inhibition at 0.1 μM ([1]; HCT-116, at 0.1 μM) [%] | HCT-116 % Inhibition at 0.25 μM ([1]; HCT-116, at 0.25 μM) [%] | other results
Nc1nc(Nc2ccc(C(=O)Nc3ccc(CCO)cc3)cc2)sc1C(=O)c1c(F)cccc1F [Example G328] |  |  |  |  | HCT-116 % Inhibition at 0.1 μM ([1]; HCT-116 cells, 0.1 μM compound): 33%; HCT-116 % Inhibition at 0.25 μM [1, 4]: 89%; CDK2 % Inhibition at 0.03 μM ([2]; 0.03 μM compound): 19%; CDK4 % Inhibition at 0.03 μM ([3]; 0.03 μM compound): 29%
CN1CCCC1CCNC(=O)c1ccc(Nc2nc(N)c(C(=O)c3c(F)cccc3F)s2)cc1 (stereo not drawn) [Example G147] | 10 | 35 | 0 | 65 | 
Nc1nc(Nc2ccc(C(=O)N3CCN(CCCO)CC3)cc2)sc1C(=O)c1c(F)cccc1F [Example G12] | −14 | 10 |  | 48 | 
CCOC(=O)Cc1ccc(NC(=O)c2ccc(Nc3nc(N)c(C(=O)c4c(F)cccc4F)s3)cc2)cc1 [Example G130] | 1 | 11 | 0 | 77 | 
CC(=O)N1CCC[C@H]1CNC(=O)c1ccc(Nc2nc(N)c(C(=O)c3c(F)cccc3F)s2)cc1 [Example A10, 4-[4-Amino-5-(2,6-difluoro-benzoyl)-thiazol-2S-ylamino]-N-(1-Acetyl-pyrrolidin-2S-ylmethyl)-benzamide] |  |  |  |  | IC50 [1]: 1.6 µM; Ki [2]: 0.29 µM; Ki [3]: 0.049 µM
COC(=O)c1ccc(NC(=O)c2ccc(Nc3nc(N)c(C(=O)c4c(F)cccc4F)s3)cc2)cc1OC [Example G220] |  |  |  |  | HCT-116 % Inhibition at 0.1 μM ([1]; HCT-116 cells, 0.1 μM compound): 18%; HCT-116 % Inhibition at 0.25 μM [1, 4]: 54%; CDK2 % Inhibition at 0.03 μM ([2]; 0.03 μM compound): 10%; CDK4 % Inhibition at 0.03 μM ([3]; 0.03 μM compound): 12%
Nc1nc(Nc2ccc(C(=O)NCc3cccc(F)c3)cc2)sc1C(=O)c1c(F)cccc1F [Example G252] |  |  |  |  | HCT-116 % Inhibition at 0.1 μM ([1]; HCT-116 cells, 0.1 μM compound): 33%; HCT-116 % Inhibition at 0.25 μM [1, 4]: 67%; CDK2 % Inhibition at 0.03 μM ([2]; 0.03 μM compound): 29%; CDK4 % Inhibition at 0.03 μM ([3]; 0.03 μM compound): 31%
CCCCCNC(=O)c1ccc(Nc2nc(N)c(C(=O)c3c(F)cccc3F)s2)cc1 [Example G200] |  |  |  |  | HCT-116 % Inhibition at 0.1 μM ([1]; HCT-116 cells, 0.1 μM compound): 19%; HCT-116 % Inhibition at 0.25 μM [1, 4]: 50%; CDK2 % Inhibition at 0.03 μM ([2]; 0.03 μM compound): 15%; CDK4 % Inhibition at 0.03 μM ([3]; 0.03 μM compound): 23%
C=CCNC(=O)c1ccc(Nc2nc(N)c(C(=O)c3c(F)cccc3F)s2)cc1 [Example G219] |  |  |  |  | HCT-116 % Inhibition at 0.1 μM ([1]; HCT-116 cells, 0.1 μM compound): 8%; HCT-116 % Inhibition at 0.25 μM [1, 4]: 52%; CDK2 % Inhibition at 0.03 μM ([2]; 0.03 μM compound): 10%; CDK4 % Inhibition at 0.03 μM ([3]; 0.03 μM compound): 13%
CN(C)CCCN(C)C(=O)c1ccc(Nc2nc(N)c(C(=O)c3c(F)cccc3F)s2)cc1 [Example G64] | 5 | 17 |  | 57 | 
CCN(CCc1ccccn1)C(=O)c1ccc(Nc2nc(N)c(C(=O)c3c(F)cccc3F)s2)cc1 [Example G251] |  |  |  |  | HCT-116 % Inhibition at 0.1 μM ([1]; HCT-116 cells, 0.1 μM compound): 16%; HCT-116 % Inhibition at 0.25 μM [1, 4]: 48%; CDK2 % Inhibition at 0.03 μM ([2]; 0.03 μM compound): 10%; CDK4 % Inhibition at 0.03 μM ([3]; 0.03 μM compound): 11%
CCCN(CC1CC1)C(=O)c1ccc(Nc2nc(N)c(C(=O)c3c(F)cccc3F)s2)cc1 [Example G1] | −3 | −10 |  | 56 | 
Nc1nc(Nc2ccc(C(=O)N3CCN(Cc4ccccc4)CC3)cc2)sc1C(=O)c1c(F)cccc1F [Example G217] |  |  |  |  | HCT-116 % Inhibition at 0.1 μM ([1]; HCT-116 cells, 0.1 μM compound): 8%; HCT-116 % Inhibition at 0.25 μM [1, 4]: 51%; CDK2 % Inhibition at 0.03 μM ([2]; 0.03 μM compound): 17%; CDK4 % Inhibition at 0.03 μM ([3]; 0.03 μM compound): 34%
Nc1nc(Nc2ccc(C(=O)NCC3CCCCN3)cc2)sc1C(=O)c1c(F)cccc1F (stereo not drawn) [Example A33, 4-[4-Amino-5-(2,6-difluoro-benzoyl)-thiazol-2-ylamino]-N-(piperidin-2RS-ylmethyl)-benzamide Trifluoroacetate Salt] |  |  |  |  | IC50 [1]: 2.2 µM; Ki [2]: 0.091 µM; Ki [3]: 0.01 µM
C[C@@H](CN(C)C)N(C)C(=O)c1ccc(Nc2nc(N)c(C(=O)c3c(F)cccc3F)s2)cc1 [Example A36, 4-[4-Amino-5-(2,6-difluoro-benzoyl)-thiazol-2-ylamino]-N-(2-dimethylamino-1S-methyl-ethyl)-N-methyl-benzamide] |  |  |  |  | IC50 [1]: 0.78 µM; Ki [2]: 0.223 µM; Ki [3]: 0.044 µM
COCC(C)NC(=O)c1ccc(Nc2nc(N)c(C(=O)c3c(F)cccc3F)s2)cc1 (stereo not drawn) [Example G103] | −2 | 5 | 21 | 59 | 
Cc1cc(F)c(C(=O)c2sc(Nc3ccc(C(=O)NC[C@@H]4CCCN4C)cc3)nc2N)c(F)c1 [Example A68, 4-{4-Amino-5-(2,6-difluoro-4-methyl-benzoyl)-thiazol-2-ylamino}-N-(1-methyl-pyrrolidin-2S-ylmethyl)-benzamide] |  |  |  |  | IC50 [1]: 0.075 µM; Ki [2]: 0.0085 µM; Ki [3]: 0.045 µM
Nc1nc(Nc2ccc(C(=O)Nc3ccc4c(c3)S(=O)(=O)C=C4)cc2)sc1C(=O)c1c(F)cccc1F [Example G115] | 27 | 24 | 30 | 88 | 
Nc1nc(Nc2ccc(C(=O)NCCCN(CCO)CCO)cc2)sc1C(=O)c1c(F)cccc1F [Example G339] |  |  |  |  | HCT-116 % Inhibition at 0.1 μM ([1]; HCT-116 cells, 0.1 μM compound): 9%; HCT-116 % Inhibition at 0.25 μM [1, 4]: 48%; CDK2 % Inhibition at 0.03 μM ([2]; 0.03 μM compound): 6%; CDK4 % Inhibition at 0.03 μM ([3]; 0.03 μM compound): 34%
Nc1nc(Nc2ccc(C(=O)NCC(O)c3ccccc3)cc2)sc1C(=O)c1c(F)cccc1F (stereo not drawn) [Example G104] | 8 | 14 | 38 | 91 | 
CCN1CCN(C(=O)c2ccc(Nc3nc(N)c(C(=O)c4c(F)cccc4F)s3)cc2)CC1 [Example G81] | 15 | 19 |  | 58 | 

Now from value to molecule, other results behind:

CDK2 % Inhibition at 0.03 μM ([2]; at 0.03 μM) [%] | CDK4 % Inhibition at 0.03 μM ([3]; at 0.03 μM) [%] | SMILES | HCT-116 % Inhibition at 0.1 μM ([1]; HCT-116, at 0.1 μM) [%] | HCT-116 % Inhibition at 0.25 μM ([1]; HCT-116, at 0.25 μM) [%] | other results
7 | 7 | COC(=O)c1cccc(NC(=O)c2ccc(Nc3nc(N)c(C(=O)c4c(F)cccc4F)s3)cc2)c1 [Example G106] | 0 | 61 | 
9 | −1 | CC(C)c1ccccc1NC(=O)c1ccc(Nc2nc(N)c(C(=O)c3c(F)cccc3F)s2)cc1 [Example G51] |  | 89 | 
10 | 23 | Nc1nc(Nc2ccc(C(=O)NCCc3ccccc3Cl)cc2)sc1C(=O)c1c(F)cccc1F [Example G177] | 24 | 45 | 
−12 | 4 | Cc1cccc(Cl)c1NC(=O)c1ccc(Nc2nc(N)c(C(=O)c3c(F)cccc3F)s2)cc1 [Example G15] |  | 46 | 
25 | 20 | CC(NC(=O)c1ccc(Nc2nc(N)c(C(=O)c3c(F)cccc3F)s2)cc1)c1ccccc1 (stereo not drawn) [Example G162] | 3 | 84 | 
7 | 20 | COc1ccccc1CCNC(=O)c1ccc(Nc2nc(N)c(C(=O)c3c(F)cccc3F)s2)cc1 [Example G185] | 10 | 49 | 
18 | 15 | Nc1nc(Nc2ccc(C(=O)Nc3cccc(-c4cnco4)c3)cc2)sc1C(=O)c1c(F)cccc1F [Example G153] | 0 | 66 | 
